The text below walks through data of patent publication US6545152B1, “R-isomers of nonnucleoside inhibitors” (Parker Hughes Institute, priority 2000, dated 2003).

By IC50 is commonly meant the concentration that gives 50% inhibition. As a reminder, the melting point is the temperature, or range, at which the solid turns liquid.

“And” between values parts separate entries of the source, which are not always exact repeats. Equal values may be shown once. Read-outs that look alike come from different tables or passages of the source.

In one data set the test system is HIV-1 strain HTLVIIIB
Briefly: p24 antigen assay of HIV-1 replication in human PBMC. The data set is classed as cell-based. The note with it: read-out: IC50 HTLVIIIB
As to the method: The HIV-1 strain HTLVIIIB (kindly provided by Dr. Neal T. Wetherall, VIROMED Laboratories, Inc.), was propagated in CCRF-CEM cells, and used in in vitro assays of the anti-HIV-1 activity of the synthesized compounds of the invention. Cell-free supernatants of HTLVIIIB-infected CCRF-CEM cells were harvested, dispensed into 1 ml aliquots, and frozen at −70° C.
The incubated cells were then exposed to HIV-1 at a multiplicity of infection (MOI) of 0.1 during a one-hour adsorption period at 37° C. in a humidified 5% CO2 atmosphere. Subsequently, infected cells were cultured in 96-well microtiter plates (100 μl/well; 2×10^6 cells/ml) in the presence of test compounds, including appropriate controls. Aliquots of culture supernatants were removed from the wells on the seventh day after infection for p24 antigen assays. […] Ag.
(§1) The applied p24 enzyme immunoassay (EIA) was the unmodified kinetic assay commercially available from Coulter Corporation/Immunotech, Inc. (Westbrooke, Me.). In the assay, a murine monoclonal antibody against HIV core protein is coated onto microwell strips. Antigen (HIV core protein) present in the test culture supernatant samples binds the antibody and the bound antibody-antigen complex is quantitated. Percent viral inhibition was calculated by comparing the p24 values from the test substance-treated infected cells with p24 values from untreated infected cells (i.e., virus controls).

Data set [1] concerns NNI-resistant HIV-1 strain A17 (Y181C). Briefly: microbe, parasite or virus in culture. The data set is classed as cell-based. As to the method: (§2) Normal human peripheral blood mononuclear cells (PBMNC) from HIV-negative donors were cultured 72 hours in RPMI 1640 supplemented with 20%(v/v) heat-inactivated fetal bovine serum (FBS), 3% interleukin-2, 2 mM L-glutamine, 25 mM HEPES, 2 g/L NaHCO3, 50 μg/ml gentamicin, and 4 μg/ml phytohemagglutinin prior to exposure to HIV-1. The incubated cells were then exposed to HIV-1 at a multiplicity of infection (MOI) of 0.1 during a one-hour adsorption period at 37° C. in a humidified 5% CO2 atmosphere. Subsequently, infected cells were cultured in 96-well microtiter plates (100 μl/well; 2×10^6 cells/ml) in the presence of test compounds, including appropriate controls. Aliquots of culture supernatants were removed from the wells on the seventh day after infection for p24 antigen assays. The methods used in the P24 assay were as previously described in Uckun, et al., Antimicrobial Agents and Chemotherapy, 1998, 42, 383; Zarling, et al., Nature, 1990, 347, 92-95; Erice, et al., Antimicrob. Ag. Chemother., 1993, 37, 835.
as §1

Data set [2] has as its system HIV-1 strain A17 variant (Y181C plus K103N). Briefly: microbe, parasite or virus in culture. The data set is classed as cell-based. As to the method:
as §2, §1

In data set [3] the test system is multidrug resistant HIV-1 strain RT-MDR (V106A, 74V, 41L, 215Y). Kind of data set: microbe, parasite or virus in culture. The data set is classed as cell-based.
Data set [4] addresses T1, recombinant HIV-1 reverse transcriptase (rRT) (Human immunodeficiency virus type 1 group M subtype B, UniProt P04585).
T1 construct: recombinant HIV-1 reverse transcriptase (rRT)
Briefly: Cell-free RT inhibition assay (Quan-T-RT, scintillation proximity). It counts as biochemical. As to the method: In addition, the activity of the test compounds to inhibit recombinant HIV-1 reverse transcriptase (rRT) activity was determined using the Quan-T-RT assay system (Amersham, Arlington Heights, Ill.), which utilizes the scintillation proximity assay principle. […] Data for both bioassays is reported as IC50 values.
(In a scintillation proximity assay essentially only radioactivity close to the scintillant gives light.)

Where [5] appears, read: Human immunodeficiency virus 1, PBMC, human PBMC, p24.
[6] abbreviates: Human immunodeficiency virus 1, read-out: IC50 A17.
The mark [7] stands for this setting: Human immunodeficiency virus 1, 168 h, read-out: IC50 A17 (second column; A17 variant).
[8] abbreviates: Human immunodeficiency virus 1, read-out: IC50 A17 (second column; A17 variant).
The mark [9] stands for this setting: Human immunodeficiency virus 1, H9, read-out: IC50 RT-MDR.

On to `CC(C)Nc1cccnc1N1CCN(C(=O)c2cc3cc(NS(C)(=O)=O)ccc3[nH]2)CC1` [Delavirdine, reference compound], for which the half-inhibitory concentration (IC50) was 9 nM in the data set on HIV-1 strain HTLVIIIB (setting [5]); 50000 nM in data set [1] (setting [6]); over 100 µM in data set [2] (setting [7]); over 100 µM in data set [2] (setting [8]); 400 nM in data set [3] (setting [9]).
As for `Fc1ccccc1CCNC(=S)Nc1ccc(Br)cn1` [HI-240, reference compound], the IC50 with HIV-1 strain HTLVIIIB (human PBMC, p24) was under 1 nM; in data set [4] it was 0.6 µM; in data set [1] (Y181C mutation, read-out: IC50 A17) it was 200 nM; in data set [2] (Y181C plus K103N mutations, read-out: IC50 A17 (second column; A17 variant)), 41 µM; in data set [3] (H9 cells, read-out: IC50 RT-MDR), 5 nM.
On to `Cc1ccnc2c1NC(=O)c1cccnc1N2C1CC1` [Nevirapine, reference compound], for which the IC50 in the data set with HIV-1 strain HTLVIIIB (setting [5]) is 34 nM; in data set [1] (setting [6]), over 100000 nM; in data set [2] (setting [8]), over 100 µM; in data set [3] (setting [9]) it was 5000 nM.
Molecule `C[C@@H](NC(=S)Nc1ccc(Br)cn1)C1CCCCC1` [PHI-509^R, N-[1-(1-(1R)-Cyclohexylethyl)]-N-[2-(5-bromopyridyl)] thiourea] yielded a melting point of 176 to 177 °C. Besides, the half-inhibitory concentration (IC50) in the data set on HIV-1 strain HTLVIIIB (human PBMC, p24, listed as PHI-509^S) is over 1000 nM. Further, the IC50 with HIV-1 strain HTLVIIIB (human PBMC, p24) came out at 1 nM. Moreover, in data set [1] (setting [6]), the IC50 is 400 nM. Further, the IC50 in data set [2] (setting [7]) was 10 µM. In addition, in data set [3] (setting [9]), the IC50 turned out to be 200 nM.
Turning to `CC(NC(=S)Nc1ccc(Cl)cn1)C1CCCCC1` (stereo not shown) [PHI-510^R], the IC50 in data set [1] (setting [6]) was found to be 70 nM; in data set [2] (setting [8]), 8.2 µM; in data set [3] (setting [9]), 60 nM.
On to `C[C@@H](NC(=S)Nc1ccc(Br)cn1)c1ccccc1` [PHI-511^R], for which the melting point was 170 to 172 °C. Also, the IC50 in the data set with HIV-1 strain HTLVIIIB (human PBMC, p24, listed as PHI-511^S) is over 1000 nM. Further, the half-inhibitory concentration (IC50) with HIV-1 strain HTLVIIIB (human PBMC, p24) amounted to 10 nM. In data set [1] (A17), the “times more active than HI-240” value amounted to 20 times, the “times more active than delavirdine” value is on record as 5,000 times, the “times more active than nevirapine” value is 10,000 times and the “times more active than trovirdine” value stood at 50 times. For the same molecule, in data set [1] (setting [6]), the IC50 came out at 10 nM. Besides, the IC50 in data set [2] (setting [8]) came out at 2.7 µM. In addition, the IC50 in data set [3] (setting [9]) was determined as 5 nM. In data set [3] (RT-MDR), the “times more active than delavirdine” value came out at 80 times, the “times more active than nevirapine” value is on record as 1,000 times and the “times more active than trovirdine” value turned out to be 4 times.
In the case of `C[C@@H](NC(=S)Nc1ccc(Cl)cn1)c1ccccc1` [PHI-512^R], the melting point is 185 to 187.5 °C. Moreover, the IC50 in the data set with HIV-1 strain HTLVIIIB (setting [5]) worked out at 10 nM. In data set [1] (setting [6]), the IC50 turned out to be 200 nM. The IC50 in data set [2] (setting [8]) was determined as 10.2 µM. Also, in data set [3] (setting [9]), the IC50 is 10 nM.
Consider `C[C@@H](NC(=S)Nc1nccs1)C1CCCCC1` [PHI-513^R, N-[1-(1-(1R)-Cyclobexyl)ethyl]-N′-[2-(thiazolyl)]thiourea], for which the melting point was in the range of 118 to 119 °C. In addition, the half-maximal inhibitory concentration (IC50) in the data set on HIV-1 strain HTLVIIIB (human PBMC, p24, listed as PHI-513^S) is over 1000 nM. Moreover, the IC50 in the data set with HIV-1 strain HTLVIIIB (human PBMC, p24) stood at 1 nM. In addition, the 50% inhibitory concentration (IC50) in data set [4] was 13 µM and > 100 µM. For the same molecule, the half-maximal inhibitory concentration (IC50) in data set [1] (setting [6]) turned out to be 900 nM. Also, the IC50 in data set [2] (setting [8]) turned out to be 5.8 µM. In addition, the IC50 in data set [3] (setting [9]) is 5600 nM.
In the case of `C[C@H](NC(=S)Nc1ccccn1)C1CCCCC1` [PHI-542], the IC50 is over 1000 nM in the data set on HIV-1 strain HTLVIIIB (setting [5]) and over 100 µM in data set [4].
Molecule `C[C@@H](NC(=S)Nc1ccccn1)C1CCCCC1` [PHI-543] showed a melting point of 125 to 127 °C. Also, the IC50 with HIV-1 strain HTLVIIIB (setting [5]) was over 1000 nM. For the same molecule, in data set [4], the IC50 is over 100 µM.
In the case of `S=C(NCCc1ccccn1)Nc1ccc(Br)cn1` [Trovirdine, reference compound], the IC50 with HIV-1 strain HTLVIIIB (Human immunodeficiency virus 1, PBMC) was 7 nM; in data set [1] (setting [6]), 500 nM; in data set [2] (setting [7]), over 100 µM; in data set [2] (setting [8]) it was over 100 µM; in data set [3] (setting [9]), 20 nM.
